The target of assay [1] is human GLP-1 receptor (hGLP-1R) (Homo sapiens, UniProt P43220). The experiment in a line: cAMP production (HTRF) in CHO cells expressing hGLP-1R. It is filed as cell-based. As to conditions: for EC50: Table 6, peptides modified at position 17, cAMP in CHO hGLP-1R cells, geometric mean, read-out: hGLP-1R EC50; for % Relative Potency Ratio: Table 6, % GLP-1R activity relative to GLP-1 / % GlucR activity relative to glucagon. Details: expressed in transfected cells. A digest of the protocol:
(§1)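 Potency values represent EC50 from 4-parameter logistic curves of HTRF % Delta F signal. Receptor-expressing CHO cells (hGCGR 2×10^5 cells/mL, hGLP-1R 1×10^5 cells/mL) were exposed for 30 min at room temperature before two-step cAMP detection.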
(In general: cAMP levels reflect the balance of adenylyl cyclase and phosphodiesterase activity.)

The target in assay [2] is human glucagon receptor (hGCGR) (Homo sapiens, UniProt P47871). Put plainly: cAMP production (HTRF) in CHO cells expressing hGCGR. Further details: expressed in transfected cells. To be noted: Table 6, peptides modified at position 17; cAMP in CHO hGCGR cells; geometric mean; read-out: hGluc-R EC50. Format: cell-based. A digest of the protocol: as §1
Chain of human glucagon receptor (hGCGR) (P47871 26-477): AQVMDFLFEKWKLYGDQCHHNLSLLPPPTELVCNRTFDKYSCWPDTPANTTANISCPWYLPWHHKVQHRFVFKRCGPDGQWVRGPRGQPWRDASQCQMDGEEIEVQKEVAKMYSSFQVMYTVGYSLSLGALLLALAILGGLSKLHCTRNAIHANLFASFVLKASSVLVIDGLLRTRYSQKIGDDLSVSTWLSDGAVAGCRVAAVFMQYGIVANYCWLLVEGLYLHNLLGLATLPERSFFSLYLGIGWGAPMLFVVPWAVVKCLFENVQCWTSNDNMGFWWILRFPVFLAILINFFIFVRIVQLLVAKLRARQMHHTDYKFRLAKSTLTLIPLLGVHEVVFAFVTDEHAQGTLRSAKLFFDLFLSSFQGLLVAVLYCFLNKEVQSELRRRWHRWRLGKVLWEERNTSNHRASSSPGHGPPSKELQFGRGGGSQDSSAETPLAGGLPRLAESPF

Starred links: 1 amine or outer side, 2 acyl side, 3 side chain; linkers in the order of their positions; H or OH if unused. Non-standard residues stand in square brackets, D forms with d. Residues, ends and D or L forms follow the SMILES beside them. Groups on a side chain read outwards from the residue. *: point of attachment. C18 diacid = O=C(O)CCCCCCCCCCCCCCCCC(=O)*; γGlu = O=C(O)[C@H](CCC(=O)[*:2])N[*:1]; Stearoyl = CCCCCCCCCCCCCCCCCC(=O)*; Palmitoyl = CCCCCCCCCCCCCCCC(=O)*; αMeF = C[C@](N)(Cc1ccccc1)C(=O)O; PEG2 = NCCOCCOCCC(=O)O; AEEA = NCCOCCOCC(=O)O; Aib = CC(C)(N)C(=O)O

Chain of human GLP-1 receptor (hGLP-1R) (P43220 24-463): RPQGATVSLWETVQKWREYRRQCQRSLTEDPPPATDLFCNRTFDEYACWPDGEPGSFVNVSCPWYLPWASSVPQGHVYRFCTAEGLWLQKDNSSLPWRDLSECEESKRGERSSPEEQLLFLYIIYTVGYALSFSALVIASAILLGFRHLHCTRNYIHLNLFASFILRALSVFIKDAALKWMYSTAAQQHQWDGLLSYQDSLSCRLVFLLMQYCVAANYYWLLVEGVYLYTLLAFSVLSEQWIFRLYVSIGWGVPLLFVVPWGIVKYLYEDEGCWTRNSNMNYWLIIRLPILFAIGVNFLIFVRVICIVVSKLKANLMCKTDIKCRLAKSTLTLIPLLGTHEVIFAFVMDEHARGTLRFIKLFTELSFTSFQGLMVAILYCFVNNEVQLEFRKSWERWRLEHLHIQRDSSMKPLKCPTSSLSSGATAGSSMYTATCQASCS

For the compound `CCCCCCCCCCCCCCCC(=O)N[C@@H](CCC(=O)N[C@@H](CCC(=O)NCCOCCOCCC(=O)NCCOCCOCCC(=O)NCCCC[C@H](NC(=O)[C@H](CO)NC(=O)[C@H](CC(=O)O)NC(=O)[C@H](CC(C)C)NC(=O)C(C)(C)NC(=O)[C@H](CCCCN)NC(=O)[C@H](CO)NC(=O)[C@@H](NC(=O)[C@H](CC(=O)O)NC(=O)[C@H](CO)NC(=O)[C@@H](NC(=O)[C@](C)(Cc1ccccc1)NC(=O)[C@H](CO)NC(=O)CNC(=O)[C@H](CCC(N)=O)NC(=O)[C@H](CO)NC(=O)[C@@H](N)Cc1c[nH]cn1)[C@@H](C)O)C(C)C)C(=O)N[C@@H](CCC(N)=O)C(=O)N[C@@H](C)C(=O)N[C@@H](CCC(N)=O)C(=O)N[C@@H](CC(=O)O)C(=O)N[C@@](C)(Cc1ccccc1)C(=O)N[C@H](C(=O)N[C@@H](CCC(N)=O)C(=O)N[C@@H](Cc1c[nH]cn1)C(=O)N[C@H](C(=O)N[C@@H](C)C(=O)N[C@@H](CC(N)=O)C(N)=O)[C@@H](C)CC)C(C)C)C(=O)O)C(=O)O` [Peptide 107] (H-HSQGS[αMeF]TSDVSK[Aib]LDSK([PEG2-PEG2-γGlu-γGlu-Palmitoyl])QAQD[αMeF]VQHIAN-NH2; N-terminus assumed), the EC50 (as a rule, the concentration at which the effect is half-maximal) turned out to be 65.9 pM in assay [1] and 99.1 pM in assay [2]. Also, the “% Relative Potency Ratio” value in assay [1] was determined as 3.0.

In the case of `CC[C@H](C)[C@H](NC(=O)C(C)(C)NC(=O)[C@H](CCC(N)=O)NC(=O)[C@@H](NC(=O)[C@](C)(Cc1ccccc1)NC(=O)[C@H](CC(=O)O)NC(=O)[C@H](CCC(N)=O)NC(=O)[C@H](C)NC(=O)[C@H](C)NC(=O)[C@H](CCCCNC(=O)COCCOCCNC(=O)COCCOCCNC(=O)CC[C@H](NC(=O)CCCCCCCCCCCCCCCCC(=O)O)C(=O)O)NC(=O)[C@H](CO)NC(=O)[C@H](CC(=O)O)NC(=O)[C@H](CC(C)C)NC(=O)C(C)(C)NC(=O)[C@H](CCCCN)NC(=O)[C@H](CO)NC(=O)[C@@H](NC(=O)[C@H](CC(=O)O)NC(=O)[C@H](CO)NC(=O)[C@@H](NC(=O)[C@](C)(Cc1ccccc1)NC(=O)[C@H](CO)NC(=O)CNC(=O)[C@H](CCC(N)=O)NC(=O)[C@H](CO)NC(=O)[C@@H](N)Cc1c[nH]cn1)[C@@H](C)O)C(C)C)C(C)C)C(=O)N[C@@H](C)C(=O)N[C@@H](CC(N)=O)C(N)=O` [Peptide 108] (H-HSQGS[αMeF]TSDVSK[Aib]LDSK([AEEA-AEEA-γGlu-C18 diacid])AAQD[αMeF]VQ[Aib]IAN-NH2; N-terminus assumed), the EC50 in assay [1] was 3200 pM; in assay [2], above 27100 pM.

As to `CC[C@H](C)[C@H](NC(=O)C(C)(C)NC(=O)[C@H](CCC(N)=O)NC(=O)[C@@H](NC(=O)[C@](C)(Cc1ccccc1)NC(=O)[C@H](CC(=O)O)NC(=O)[C@H](CCC(N)=O)NC(=O)[C@H](C)NC(=O)[C@H](C)NC(=O)[C@H](CCCCNC(=O)COCCOCCNC(=O)COCCOCCNC(=O)CC[C@H](NC(=O)CCCCCCCCCCCCCCCCC(=O)O)C(=O)O)NC(=O)[C@H](CO)NC(=O)[C@H](CC(=O)O)NC(=O)[C@H](CC(C)C)NC(=O)C(C)(C)NC(=O)[C@H](CCCCNC(C)=O)NC(=O)[C@H](CO)NC(=O)[C@@H](NC(=O)[C@H](CC(=O)O)NC(=O)[C@H](CO)NC(=O)[C@@H](NC(=O)[C@](C)(Cc1ccccc1)NC(=O)[C@H](CO)NC(=O)CNC(=O)[C@H](CCC(N)=O)NC(=O)[C@H](CO)NC(=O)[C@@H](N)Cc1c[nH]cn1)[C@@H](C)O)C(C)C)C(C)C)C(=O)N[C@@H](C)C(=O)N[C@@H](CC(N)=O)C(N)=O` [Peptide 109] (H-HSQGS[αMeF]TSDVSK(Ac)[Aib]LDSK([AEEA-AEEA-γGlu-C18 diacid])AAQD[αMeF]VQ[Aib]IAN-NH2; N-terminus assumed), the EC50 in assay [1] is 698 pM; in assay [2] it was above 26800 pM.

On to `CCCCCCCCCCCCCCCCCC(=O)N[C@@H](CCC(=O)N[C@@H](CCC(=O)NCCOCCOCCC(=O)NCCOCCOCCC(=O)NCCCC[C@H](NC(=O)[C@H](CO)NC(=O)[C@H](CC(=O)O)NC(=O)[C@H](CC(C)C)NC(=O)C(C)(C)NC(=O)[C@H](CCCCNC(C)=O)NC(=O)[C@H](CO)NC(=O)[C@@H](NC(=O)[C@H](CC(=O)O)NC(=O)[C@H](CO)NC(=O)[C@@H](NC(=O)[C@](C)(Cc1ccccc1)NC(=O)[C@H](CO)NC(=O)CNC(=O)[C@H](CCC(N)=O)NC(=O)[C@H](CO)NC(=O)[C@@H](N)Cc1c[nH]cn1)[C@@H](C)O)C(C)C)C(=O)N[C@@H](C)C(=O)N[C@@H](C)C(=O)N[C@@H](CCC(N)=O)C(=O)N[C@@H](CC(=O)O)C(=O)N[C@@](C)(Cc1ccccc1)C(=O)N[C@H](C(=O)N[C@@H](CCC(N)=O)C(=O)NC(C)(C)C(=O)N[C@H](C(=O)N[C@@H](C)C(=O)N[C@@H](CC(N)=O)C(N)=O)[C@@H](C)CC)C(C)C)C(=O)O)C(=O)O` [Peptide 110] (H-HSQGS[αMeF]TSDVSK(Ac)[Aib]LDSK([PEG2-PEG2-γGlu-γGlu-Stearoyl])AAQD[αMeF]VQ[Aib]IAN-NH2; N-terminus assumed), for which the “% Relative Potency Ratio” value in assay [1] came to 152.9. In assay [2], the concentration giving a half-maximal response (EC50) is 48.5 pM.

Turning to `CCCCCCCCCCCCCCCC(=O)N[C@@H](CCC(=O)N[C@@H](CCC(=O)NCCOCCOCCC(=O)NCCOCCOCCC(=O)NCCCC[C@H](NC(=O)[C@H](CO)NC(=O)[C@H](CC(=O)O)NC(=O)[C@H](CC(C)C)NC(=O)[C@@H](NC(=O)[C@H](CCCCN)NC(=O)[C@H](CO)NC(=O)[C@@H](NC(=O)[C@H](CC(=O)O)NC(=O)[C@H](CO)NC(=O)[C@@H](NC(=O)[C@](C)(Cc1ccccc1)NC(=O)[C@H](CO)NC(=O)CNC(=O)[C@H](CCC(N)=O)NC(=O)[C@H](CO)NC(=O)[C@@H](N)Cc1c[nH]cn1)[C@@H](C)O)C(C)C)[C@@H](C)CC)C(=O)N[C@@H](C)C(=O)N[C@@H](C)C(=O)N[C@@H](CCC(N)=O)C(=O)N[C@@H](CC(=O)O)C(=O)N[C@@](C)(Cc1ccccc1)C(=O)N[C@H](C(=O)N[C@@H](CCC(N)=O)C(=O)NC(C)(C)C(=O)N[C@H](C(=O)N[C@@H](C)C(=O)N[C@@H](CC(N)=O)C(N)=O)[C@@H](C)CC)C(C)C)C(=O)O)C(=O)O` [Peptide 111] (H-HSQGS[αMeF]TSDVSKILDSK([PEG2-PEG2-γGlu-γGlu-Palmitoyl])AAQD[αMeF]VQ[Aib]IAN-NH2), the EC50 in assay [1] stood at 1.92 pM; in assay [2], 2.09 pM. For the same compound, in assay [1], the “% Relative Potency Ratio” value amounted to 2.2.

Take `CCCCCCCCCCCCCCCC(=O)N[C@@H](CCC(=O)N[C@@H](CCC(=O)NCCOCCOCCC(=O)NCCOCCOCCC(=O)NCCCC[C@H](NC(=O)[C@H](CO)NC(=O)[C@H](CC(=O)O)NC(=O)[C@H](CC(C)C)NC(=O)[C@@H](NC(=O)[C@H](CCCCN)NC(=O)[C@H](CO)NC(=O)[C@@H](NC(=O)[C@H](CC(=O)O)NC(=O)[C@H](CO)NC(=O)[C@@H](NC(=O)[C@](C)(Cc1ccccc1)NC(=O)[C@H](CO)NC(=O)CNC(=O)[C@H](CCC(N)=O)NC(=O)[C@H](CO)NC(=O)[C@@H](N)Cc1c[nH]cn1)[C@@H](C)O)C(C)C)[C@@H](C)CC)C(=O)N[C@@H](C)C(=O)N[C@@H](C)C(=O)N[C@@H](CCC(N)=O)C(=O)N[C@@H](CC(=O)O)C(=O)N[C@@](C)(Cc1ccccc1)C(=O)N[C@H](C(=O)N[C@@H](CCC(N)=O)C(=O)N[C@H](C(=O)N[C@H](C(=O)N[C@@H](C)C(=O)N[C@@H](CC(N)=O)C(N)=O)[C@@H](C)CC)[C@@H](C)CC)C(C)C)C(=O)O)C(=O)O` [Peptide 112] (H-HSQGS[αMeF]TSDVSKILDSK([PEG2-PEG2-γGlu-γGlu-Palmitoyl])AAQD[αMeF]VQIIAN-NH2): in assay [1], the EC50 is 3.36 pM and the “% Relative Potency Ratio” value came to 1.6. In addition, the EC50 in assay [2] worked out at 2.69 pM.

Take `CCCCCCCCCCCCCCCC(=O)N[C@@H](CCC(=O)N[C@@H](CCC(=O)NCCOCCOCCC(=O)NCCOCCOCCC(=O)NCCCC[C@H](NC(=O)[C@H](CO)NC(=O)[C@H](CC(=O)O)NC(=O)[C@H](CC(C)C)NC(=O)[C@@H](NC(=O)[C@H](CCCCN)NC(=O)[C@H](CO)NC(=O)[C@@H](NC(=O)[C@H](CC(=O)O)NC(=O)[C@H](CO)NC(=O)[C@@H](NC(=O)[C@](C)(Cc1ccccc1)NC(=O)[C@H](CO)NC(=O)CNC(=O)[C@H](CCC(N)=O)NC(=O)[C@H](CO)NC(=O)[C@@H](N)Cc1c[nH]cn1)[C@@H](C)O)C(C)C)[C@@H](C)CC)C(=O)N[C@@H](C)C(=O)N[C@@H](C)C(=O)N[C@@H](CCC(N)=O)C(=O)N[C@@H](CC(=O)O)C(=O)N[C@@](C)(Cc1ccccc1)C(=O)N[C@H](C(=O)N[C@@H](CCC(N)=O)C(=O)N[C@H](C(=O)N[C@H](C(=O)N[C@@H](C)C(=O)NCC(N)=O)[C@@H](C)CC)[C@@H](C)CC)C(C)C)C(=O)O)C(=O)O` [Peptide 113] (H-HSQGS[αMeF]TSDVSKILDSK([PEG2-PEG2-γGlu-γGlu-Palmitoyl])AAQD[αMeF]VQIIAG-NH2; N-terminus assumed): in assay [1], the EC50 came to 1.61 pM and the “% Relative Potency Ratio” value was 5.6. Further, in assay [2], the EC50 is 4.6 pM.

Take `CCCCCCCCCCCCCCCC(=O)N[C@@H](CCC(=O)N[C@@H](CCC(=O)NCCOCCOCCC(=O)NCCOCCOCCC(=O)NCCCC[C@H](NC(=O)[C@H](CO)NC(=O)[C@H](CC(=O)O)NC(=O)[C@H](CC(C)C)NC(=O)[C@@H](NC(=O)[C@H](CCCCN)NC(=O)[C@H](CO)NC(=O)[C@@H](NC(=O)[C@H](CC(=O)O)NC(=O)[C@H](CO)NC(=O)[C@@H](NC(=O)[C@](C)(Cc1ccccc1)NC(=O)[C@H](CO)NC(=O)CNC(=O)[C@H](CCC(N)=O)NC(=O)[C@H](CO)NC(=O)[C@@H](N)Cc1c[nH]cn1)[C@@H](C)O)C(C)C)[C@@H](C)CC)C(=O)N[C@@H](C)C(=O)N[C@@H](C)C(=O)N[C@@H](CCC(N)=O)C(=O)N[C@@H](CC(=O)O)C(=O)N[C@@](C)(Cc1ccccc1)C(=O)N[C@H](C(=O)N[C@@H](CCC(=O)O)C(=O)N[C@H](C(=O)N[C@H](C(=O)N[C@@H](C)C(=O)N[C@@H](CC(N)=O)C(N)=O)[C@@H](C)CC)[C@@H](C)CC)C(C)C)C(=O)O)C(=O)O` [Peptide 114] (H-HSQGS[αMeF]TSDVSKILDSK([PEG2-PEG2-γGlu-γGlu-Palmitoyl])AAQD[αMeF]VEIIAN-NH2; N-terminus assumed): the values for the EC50 in assay [1] and in assay [2] were 3.65 pM and 2.65 pM, respectively. Moreover, in assay [1], the “% Relative Potency Ratio” value is on record as 1.4.

Values taken from patent publication US20250353891A1 (MEDIMMUNE LIMITED, priority 2022, published 2025).
